Patent US20080021107A1, “USE OF AMINO ACIDS FOR TREATMENT OF VARIOUS CONDITIONS” (UNIVERSITY OF ROCHESTER, priority 2002, published 2008)

Key:
[1] = tested on: hot flashes in post-menopausal women; assay: Oral administration to patients experiencing hot flashes as symptoms of postmenopausal hormone variation; settings: for side effects: human, in vivo, po
From the text: Administration of L-Norleucine to Patients Experiencing Hot Flashes as Symptoms of Postmenopausal Hormone Variation […]

[2] = high-dose oral L-methionine; van der Griend et al. 2002; cited from earlier work
[3] = tested on: palmar hyperhidrosis; settings: L-methionine 1 g bid orally
[4] = tested on: hot flashes as a result of the post-partum state; settings: L-methionine 1 g bid orally
[5] = Backonja et al. 1998; Rowbotham et al. 1998; cited from earlier work

Row | Structure (SMILES) | reduction in hot flashes ([1]; Example 4 Patient No. 1, 6 hot flashes/day at baseline, oral L-norleucine 1.5 grams 2x/day, starting 10 days after initiating, maintained for 3.5 months) [%] | reduction in hot flashes ([1]; Example 4 Patient No. 2, 8 hot flashes/day at baseline, oral L-norleucine 1 gram 2x/day, starting 4 days after initiating, maintained for 1.5 months) [%] | side effects [1] | improvement in hot flash frequency ([1]; Patient No. 1, about 10 hot flashes per day, L-methionine 1 gram tid orally, after three weeks, benefit persisted for 3 months of therapy) [%] | change in symptoms ([1]; Patient No. 1, L-methionine 500 mg three times daily for two weeks) | improvement in hot flash frequency ([1]; Patient No. 2, about 15 hot flashes per day, L-methionine 1 g tid orally, after three weeks, benefit persisted for 5 months of therapy) [%] | improvement in nighttime hot flash frequency ([1]; Patient No. 3, about 7 hot flashes per day, L-methionine 500 mg tid orally, after three weeks) [%] | improvement in both nighttime and daytime hot flash severity ([1]; Patient No. 3, L-methionine 500 mg tid orally, after three weeks) [%] | increase in serum homocysteine levels [2] [fold] | side effects [3] | reduction in the subjective severity of palmar hyperhidrosis ([3]; person, after 3 weeks) [%] | side effects [4] | improvement in hot flash frequency ([4]; person, 3 severe nighttime and 2 moderate daytime hot flashes per day, after three weeks) [%] | tolerability ([1]; Example 1 Patient No. 1, gabapentin therapy for several days) | patient withdrawal rate due to side effects (most often sleepiness and dizziness) [5]
1 | CCCC[C@H](N)C(=O)O [L-norleucine] | 70 | 87 | No side effects |  |  |  |  |  |  |  |  |  |  |  | 
2 | CSCC[C@H](N)C(=O)O [L-methionine] |  |  | No side effects | 90 | without noticing an appreciable change | 90 | 66 | 50 | 10 | No side effects | 50 | No side effects | 100 |  | 
3 | NCC1(CC(=O)O)CCCCC1 [gabapentin, Gabapentin, reference compound] |  |  |  |  |  |  |  |  |  |  |  |  |  | unable to tolerate the drug due to severe dizziness | approximately 13%
